Data taken from patent publication US20100227841A1, “Patient populations and treatment methods” (Harbor BioSciencs, Inc., priority 2008, published 2010).

System: female NOD mice
Test: Spontaneous autoimmune diabetes in non-obese diabetic (NOD) mouse model
Format: in vivo
Source text: Treatment of spontaneous autoimmune diabetes in non-obese diabetic (NOD) mouse model. The NOD model is used as an animal model for human type 1 diabetes. The NOD mouse strain spontaneously develops autoimmune (type 1) diabetes by a process that has similarities to human type 1 diabetes mellitus, e.g., immune-mediated selective destruction of the pancreatic islet 13-cells that produce insulin (M. A. Atkinson and N. K. Maclaren, New England J. Medicine, 331:1428-1436 1994). There is a higher incidence of diabetes (i.e., hyperglycemia, glucosuria, and hypoinsulinemia) in female vs. male NOD mice (80-90% vs. 10-20%, respectively). Disease incidence in this animal model is first observed at approximately 12 to 15 weeks of age with maximum incidence usually peaking 5 to 6 weeks later.
Methods. An oral formulation containing 17α-ethynylandrost-5-ene-3β,7β,17β-triol in 30% w/v β-cyclodextrin sulfobutyl ether sodium salt (Captisol®; CyDex, Inc., Overland Park, Kans.) was used. Six-week old female NOD mice (approximately 20-25 grams) were purchased from The Jackson Laboratories (Bar Harbor, Me.) and housed in a vivarium under pathogen-free conditions. The animals were acclimated for at least one week prior to initiation of oral dosing with 17α-ethynylandrost-5-ene-3β,7β,17β-triol. Animals were randomized into 5 per cage upon receipt and cages were subsequently randomized into dosing groups.
Female NOD mice were treated once daily with vehicle, 17α-ethynylandrost-5-ene-3β,7β,17β-triol (20 or 80 mg/kg in 100 μL, p.o.), or dexamethasone (0.25 mg/kg, 100 μL, i.p.) from 15 to 25 weeks of age (i.e., before the first incidence of diabetes; at the University of Catania), from 13 to 19 weeks of age (2 days after the first incidence of diabetes), or from 12 to 26 weeks of age (9 days after the first incidence of diabetes). Blood glucose was monitored using glucometers (ENCORE Glucometer, Bayer Corp., Elkhart, Ind.) at weekly intervals, beginning at 10 weeks of age. Mice with blood glucose levels 200 mg/dL on two consecutive occasions were considered diabetic. The percentage of animals with diabetes over the course of the experiment was monitored.
Histological assessment of insulitis and functional 13-cell content was assessed at the time of disease diagnosis or at the end of the 26-week study (i.e., disease-free mice). Pancreata (after CO2 euthanasia) were immediately isolated and placed in 10% buffered formalin at room temperature overnight, and then embedded in paraffin. After de-paraffinizing, pancreas samples were rehydrated and 5 μm sections were prepared and fixed on glass slides. Some sections were stained with hematoxylin and eosin (H&E) while others were stained with anti-insulin antibody as follows; prepared sections were immersed in Tris-Buffered Saline (TBS: 10 mM Tris buffer, pH 7.4, 0.15 M NaCl) containing 1% of bovine serum albumin (BSA) and 5% normal goat serum for 2 h at room temperature followed by incubation with 2 μg/mL rat anti-insulin IgG2a monoclonal antibody (MAB1417; R&D Systems, Minneapolis, Minn.) in TBS/1% BSA overnight at 4° C. in a humidified chamber. After washing with TBS/0.5 Tween-20, sections were covered with biotinylated anti-rat IgG secondary antibody (BD biosciences, 1:1,000) for 1 h at room temperature, followed by washing with TBS/Tween-20 and incubation with streptavidin-horseradish peroxidase for 30 min. Sections were then incubated with chromogen substrate, DAB (BD Biosciences), for 5 min and counterstained with hematoxylin. The degree of insulitis (leukocyte infiltration per islet; H&E) and functional 13-cell content per islet (insulin production) was scored using a scale of 0 to 3 in which 0=none, 1=few, 2=moderate, 3=high content of inflammatory cells or functional β-cells. Pancreata that were scored were obtained from a randomly-selected portion of mice from each cohort and scores were reported as the mean±SEM for each cohort.

[1] = dexamethasone 0.25 mg/kg i.p. once daily
[2] = dexamethasone 0.25 mg/kg i.p. once daily, scale of 0 to 3

## C[C@@H]1C[C@H]2[C@@H]3CCC4=CC(=O)C=C[C@]4(C)[C@@]3(F)[C@@H](O)C[C@]2(C)[C@@]1(O)C(=O)CO [dexamethasone, reference compound]
[1]
  Disease Incidence: 0.20 ± 0.20
  No. Islets/pancreas (H&E): 8.2 ± 6.3
[2]
  Insulitis Score/Islet (H&E): 2.0 ± 0.6
  β-Cell Score/Islet (Insulin): 2.3 ± 0.3
Week 19, once daily treatment from 15 to 25 weeks of age (vehicle 25%)
  first incidence of diabetes: 0%
